Measurements reported in US12065436B2, “Cardiac sarcomere inhibitors” (Cytokinetics, Inc., priority 2018, dated 2024).

Molecular target: bovine cardiac myofibrils (full-length cardiac myosin ATPase in the native sarcomere) (Bos taurus (Bovine), UniProt Q9BE39)
Experiment: Skinned bovine cardiac myofibril ATPase assay (PK/LDH-coupled)
Type: biochemical
Settings: Ca2+ activating to 75% of maximal rate; for CDMF75 IC15: concentration giving 15% inhibition; for IC50: read-out: CDMF75 IC50
How it was run: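 Triton-skinned bovine left-ventricle myofibrils (1 mg/mL) in PM 12 buffer (12 mM PIPES, 2 mM MgCl2, pH 6.8) with 50 μM ATP, 0.6 mM EGTA and CaCl2 set for 50% or 75% activation. Steady-state ATPase inhibition followed by PK/LDH-coupled NADH oxidation at 340 nm.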

Chain of bovine cardiac myofibrils (full-length cardiac myosin ATPase in the native sarcomere) (Q9BE39 whole entry): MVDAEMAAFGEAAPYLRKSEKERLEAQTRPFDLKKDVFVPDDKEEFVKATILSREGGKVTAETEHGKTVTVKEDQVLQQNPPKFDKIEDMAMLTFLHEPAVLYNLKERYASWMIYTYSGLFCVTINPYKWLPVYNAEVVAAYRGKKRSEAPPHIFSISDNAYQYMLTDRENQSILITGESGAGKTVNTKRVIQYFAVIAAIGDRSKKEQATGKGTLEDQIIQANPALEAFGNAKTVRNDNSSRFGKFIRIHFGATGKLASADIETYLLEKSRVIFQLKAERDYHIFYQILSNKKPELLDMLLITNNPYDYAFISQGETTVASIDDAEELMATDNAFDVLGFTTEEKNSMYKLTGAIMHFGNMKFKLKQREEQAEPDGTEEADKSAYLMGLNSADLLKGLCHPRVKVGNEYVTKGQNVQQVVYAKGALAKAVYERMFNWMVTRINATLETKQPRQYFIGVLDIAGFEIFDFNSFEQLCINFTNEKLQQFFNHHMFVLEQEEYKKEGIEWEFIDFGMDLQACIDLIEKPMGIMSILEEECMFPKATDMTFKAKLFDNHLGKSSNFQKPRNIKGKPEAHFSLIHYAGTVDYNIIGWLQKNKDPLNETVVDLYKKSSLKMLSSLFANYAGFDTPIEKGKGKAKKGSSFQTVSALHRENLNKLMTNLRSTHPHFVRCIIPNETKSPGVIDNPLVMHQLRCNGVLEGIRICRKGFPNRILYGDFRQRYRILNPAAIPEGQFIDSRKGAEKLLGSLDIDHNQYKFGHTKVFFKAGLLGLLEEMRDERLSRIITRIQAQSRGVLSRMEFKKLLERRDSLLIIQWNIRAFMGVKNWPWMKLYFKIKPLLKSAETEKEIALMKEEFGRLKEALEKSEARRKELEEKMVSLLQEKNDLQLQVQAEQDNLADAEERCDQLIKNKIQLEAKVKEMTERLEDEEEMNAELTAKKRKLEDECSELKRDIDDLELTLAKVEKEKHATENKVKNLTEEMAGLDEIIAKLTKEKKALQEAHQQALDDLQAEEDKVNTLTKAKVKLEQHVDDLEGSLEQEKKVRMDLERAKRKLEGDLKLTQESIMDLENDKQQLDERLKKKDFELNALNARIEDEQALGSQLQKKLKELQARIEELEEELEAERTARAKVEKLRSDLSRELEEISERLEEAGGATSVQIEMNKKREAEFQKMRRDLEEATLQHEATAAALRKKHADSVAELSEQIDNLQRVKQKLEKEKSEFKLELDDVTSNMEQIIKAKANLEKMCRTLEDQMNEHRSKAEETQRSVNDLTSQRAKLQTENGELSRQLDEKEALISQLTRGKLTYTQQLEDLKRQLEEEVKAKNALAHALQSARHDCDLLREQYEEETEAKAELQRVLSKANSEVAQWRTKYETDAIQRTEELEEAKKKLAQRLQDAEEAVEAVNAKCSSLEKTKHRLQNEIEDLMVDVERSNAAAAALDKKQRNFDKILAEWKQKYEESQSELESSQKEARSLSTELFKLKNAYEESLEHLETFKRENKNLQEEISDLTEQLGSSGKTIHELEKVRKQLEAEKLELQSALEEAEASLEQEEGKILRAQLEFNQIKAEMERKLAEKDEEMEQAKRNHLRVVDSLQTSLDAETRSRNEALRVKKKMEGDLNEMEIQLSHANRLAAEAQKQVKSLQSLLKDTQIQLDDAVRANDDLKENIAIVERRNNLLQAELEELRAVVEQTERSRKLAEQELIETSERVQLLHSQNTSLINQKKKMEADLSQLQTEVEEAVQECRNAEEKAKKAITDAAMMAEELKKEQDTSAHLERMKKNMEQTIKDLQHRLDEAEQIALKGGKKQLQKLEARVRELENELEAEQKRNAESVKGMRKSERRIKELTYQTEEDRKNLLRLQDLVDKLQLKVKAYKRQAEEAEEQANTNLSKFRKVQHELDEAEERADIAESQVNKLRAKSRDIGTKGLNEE
Chain of bovine cardiac myofibrils (full-length cardiac myosin ATPase in the native sarcomere) (P85100 whole entry partner): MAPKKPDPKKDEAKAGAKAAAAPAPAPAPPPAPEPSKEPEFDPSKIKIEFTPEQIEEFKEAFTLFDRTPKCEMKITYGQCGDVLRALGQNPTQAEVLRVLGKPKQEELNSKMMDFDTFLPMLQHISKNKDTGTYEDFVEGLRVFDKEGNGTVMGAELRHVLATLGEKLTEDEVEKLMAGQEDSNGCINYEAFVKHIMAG
Chain of bovine cardiac myofibrils (full-length cardiac myosin ATPase in the native sarcomere) (Q3SZE5 whole entry partner): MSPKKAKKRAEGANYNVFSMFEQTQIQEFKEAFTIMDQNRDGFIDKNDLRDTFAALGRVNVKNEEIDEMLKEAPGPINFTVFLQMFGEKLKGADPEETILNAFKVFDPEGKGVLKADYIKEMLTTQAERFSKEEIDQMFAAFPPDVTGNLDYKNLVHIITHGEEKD

Structure (SMILES) | CDMF75 IC15 | IC50
Cc1nc(C(=O)NC2CCc3cc(-c4noc(C(F)F)n4)ccc32)no1 (stereo not shown) [Compound 84, N-(5-(5-(difluoromethyl)-1,2,4-oxadiazol-3-yl)-2,3-dihydro-1H-inden-1-yl)-5-methyl-1,2,4-oxadiazole-3-carboxamide] | 2.7 µM | 10.8 µM
Cc1nc(-c2ccc3c(c2)CCC3NC(=O)Nc2ccncc2)no1 (stereo not shown) [Compound 85, 1-(5-(5-methyl-1,2,4-oxadiazol-3-yl)-2,3-dihydro-1H-inden-1-yl)-3-(pyridin-4-yl)urea] | 5.5 µM | 24.1 µM
Cc1nc(C(=O)NC2CCc3cc(-c4noc(C)n4)ccc32)no1 (stereo not shown) [Compound 87, 5-methyl-N-(5-(5-methyl-1,2,4-oxadiazol-3-yl)-2,3-dihydro-1H-inden-1-yl)-1,2,4-oxadiazole-3-carboxamide] | 3.7 µM | 15.7 µM
O=C(NC1CCc2cc(-c3noc(C(F)F)n3)cnc21)c1ccccc1 (stereo not shown) [Compound 94, N-(3-(5-(difluoromethyl)-1,2,4-oxadiazol-3-yl)-6,7-dihydro-5H-cyclopenta[b]pyridin-7-yl)benzamide] | 5.2 µM | 26.6 µM
O=C(NC1CCc2cc(-c3noc(C(F)F)n3)ccc21)c1ccnc(O)c1 (stereo not shown) [Compound 95, N-(5-(5-(difluoromethyl)-1,2,4-oxadiazol-3-yl)-2,3-dihydro-1H-inden-1-yl)-2-hydroxyisonicotinamide] | 1.9 µM | 8 µM
Cc1nc(-c2ccc3c(c2)CCC3NC(=O)Nc2cncnc2)no1 (stereo not shown) [Compound 96, 1-(5-(5-methyl-1,2,4-oxadiazol-3-yl)-2,3-dihydro-1H-inden-1-yl)-3-(pyrimidin-5-yl)urea] | 3.0 µM | 13.4 µM
Cc1nc(-c2ccc3c(c2)CCC3NC(=O)Nc2cccnn2)no1 (stereo not shown) [Compound 97, 1-(5-(5-methyl-1,2,4-oxadiazol-3-yl)-2,3-dihydro-1H-inden-1-yl)-3-(pyridazin-3-yl)urea] | 2.0 µM | 7.8 µM
Cc1nc(-c2ccc3c(c2)CCC3NC(=O)Nc2ccncn2)no1 (stereo not shown) [Compound 98, 1-(5-(5-methyl-1,2,4-oxadiazol-3-yl)-2,3-dihydro-1H-inden-1-yl)-3-(pyrimidin-4-yl)urea] | 13.1 µM | > 39.2 µM
Cc1nc(-c2ccc3c(c2)CCC3NC(=O)c2nocc2C)no1 (stereo not shown) [Compound 105, 4-methyl-N-(5-(5-methyl-1,2,4-oxadiazol-3-yl)-2,3-dihydro-1H-inden-1-yl)isoxazole-3-carboxamide] | 2.2 µM | 8.9 µM
CCc1nc(-c2cnc3c(c2)CCC3NC(=O)c2ccnc(C)c2)no1 (stereo not shown) [Compound 108, N-(3-(5-ethyl-1,2,4-oxadiazol-3-yl)-6,7-dihydro-5H-cyclopenta[b]pyridin-7-yl)-2-methylisonicotinamide] | 5.2 µM | 24 µM
Cc1nc(-c2ccc3c(c2)CCC3NC(=O)Nc2ncccn2)no1 (stereo not shown) [Compound 110, 1-(5-(5-methyl-1,2,4-oxadiazol-3-yl)-2,3-dihydro-1H-inden-1-yl)-3-(pyrimidin-2-yl)urea] | 39.2 µM | > 39.2 µM
Cc1cnoc1C(=O)N[C@@H]1CCc2cc(-c3noc(C4COC4)n3)ccc21 [Compound 117, (R)-4-methyl-N-(5-(5-(oxetan-3-yl)-1,2,4-oxadiazol-3-yl)-2,3-dihydro-1H-inden-1-yl)isoxazole-5-carboxamide] | 1.9 µM | 10.1 µM
Cn1cnc(C(=O)NC2CCc3cc(-c4noc(C(F)F)n4)ccc32)n1 (stereo not shown) [Compound 118, N-(5-(5-(difluoromethyl)-1,2,4-oxadiazol-3-yl)-2,3-dihydro-1H-inden-1-yl)-1-methyl-1H-1,2,4-triazole-3-carboxamide] | 19.3 µM | > 39.2 µM
Cc1nc(-c2ccc3c(c2)CCC3NC(=O)c2ncn(C)n2)no1 (stereo not shown) [Compound 119, 1-methyl-N-(5-(5-methyl-1,2,4-oxadiazol-3-yl)-2,3-dihydro-1H-inden-1-yl)-1H-1,2,4-triazole-3-carboxamide] | 39.2 µM | > 39.2 µM

Next, values leading:

CDMF75 IC15 | IC50 | Structure (SMILES)
1.1 µM | 3.7 µM | Cn1nnc(C(=O)NC2CCc3cc(-c4noc(C(F)F)n4)ccc32)n1 (stereo not shown) [Compound 81, N-(5-(5-(difluoromethyl)-1,2,4-oxadiazol-3-yl)-2,3-dihydro-1H-inden-1-yl)-2-methyl-2H-tetrazole-5-carboxamide]
1.9 µM | 7.8 µM | Cn1ncc(C(=O)NC2CCc3cc(-c4noc(C(F)F)n4)ccc32)n1 (stereo not shown) [Compound 83, N-(5-(5-(difluoromethyl)-1,2,4-oxadiazol-3-yl)-2,3-dihydro-1H-inden-1-yl)-2-methyl-2H-1,2,3-triazole-4-carboxamide]
0.7 µM | 2.5 µM | Cc1nc(-c2ccc3c(c2)CCC3NC(=O)c2oncc2C)no1 (stereo not shown) [Compound 88, 4-methyl-N-(5-(5-methyl-1,2,4-oxadiazol-3-yl)-2,3-dihydro-1H-inden-1-yl)isoxazole-5-carboxamide]
1.0 µM | 3.3 µM | Cc1nc(-c2ccc3c(c2)CCC3NC(=O)c2conc2C)no1 (stereo not shown) [Compound 89, 3-methyl-N-(5-(5-methyl-1,2,4-oxadiazol-3-yl)-2,3-dihydro-1H-inden-1-yl)isoxazole-4-carboxamide]
0.4 µM | 1.9 µM | Cc1nn(C)cc1C(=O)N[C@@H]1CCc2cc(-c3noc(C(F)F)n3)ccc21 [Compound 90, (R)-N-(5-(5-(difluoromethyl)-1,2,4-oxadiazol-3-yl)-2,3-dihydro-1H-inden-1-yl)-1,3-dimethyl-1H-pyrazole-4-carboxamide]
0.5 µM | 1.8 µM | Cc1c(C(=O)N[C@@H]2CCc3cc(-c4noc(C(F)F)n4)ccc32)cnn1C [Compound 91, (R)-N-(5-(5-(difluoromethyl)-1,2,4-oxadiazol-3-yl)-2,3-dihydro-1H-inden-1-yl)-1,5-dimethyl-1H-pyrazole-4-carboxamide]
0.3 µM | 0.8 µM | Cn1nccc1C(=O)N[C@@H]1CCc2cc(-c3noc(C(F)F)n3)ccc21 [Compound 92, (R)-N-(5-(5-(difluoromethyl)-1,2,4-oxadiazol-3-yl)-2,3-dihydro-1H-inden-1-yl)-1-methyl-1H-pyrazole-5-carboxamide]
0.6 µM | 2.6 µM | Nc1cc(C(=O)NC2CCc3cc(-c4noc(C(F)F)n4)ccc32)ccn1 (stereo not shown) [Compound 99, 2-amino-N-(5-(5-(difluoromethyl)-1,2,4-oxadiazol-3-yl)-2,3-dihydro-1H-inden-1-yl)isonicotinamide]
0.3 µM | 1.1 µM | Cc1cc(C(=O)N[C@@H]2CCc3cc(-c4noc(C(F)F)n4)ccc32)n(C)n1 [Compound 101, (R)-N-(5-(5-(difluoromethyl)-1,2,4-oxadiazol-3-yl)-2,3-dihydro-1H-inden-1-yl)-1,3-dimethyl-1H-pyrazole-5-carboxamide]
1.7 µM | 6.3 µM | Cc1conc1C(=O)NC1CCc2cc(-c3noc(C(F)F)n3)ccc21 (stereo not shown) [Compound 104, N-(5-(5-(difluoromethyl)-1,2,4-oxadiazol-3-yl)-2,3-dihydro-1H-inden-1-yl)-4-methylisoxazole-3-carboxamide]
0.8 µM | 2.8 µM | Cc1cc(C(=O)N[C@@H]2CCc3cc(-c4noc(C)n4)ccc32)n(C)n1 [Compound 106, (R)-1,3-dimethyl-N-(5-(5-methyl-1,2,4-oxadiazol-3-yl)-2,3-dihydro-1H-inden-1-yl)-1H-pyrazole-5-carboxamide]
0.5 µM | 1.7 µM | Cc1nc(-c2ccc3c(c2)CC[C@H]3NC(=O)c2ccnn2C)no1 [Compound 107, (R)-1-methyl-N-(5-(5-methyl-1,2,4-oxadiazol-3-yl)-2,3-dihydro-1H-inden-1-yl)-1H-pyrazole-5-carboxamide]
1.9 µM | 7.1 µM | Cc1nc(-c2ccc3c(c2)CCC3NC(=O)Nc2ccccn2)no1 (stereo not shown) [Compound 109, 1-(5-(5-methyl-1,2,4-oxadiazol-3-yl)-2,3-dihydro-1H-inden-1-yl)-3-(pyridin-2-yl)urea]
1.1 µM | 3.7 µM | Cc1nc(-c2ccc3c(c2)CC[C@H]3NC(=O)c2cn(C)nc2C)no1 [Compound 111, (R)-1,3-dimethyl-N-(5-(5-methyl-1,2,4-oxadiazol-3-yl)-2,3-dihydro-1H-inden-1-yl)-1H-pyrazole-4-carboxamide]
1.5 µM | 5.2 µM | Cc1nc(-c2ccc3c(c2)CC[C@H]3NC(=O)c2oc(C)nc2C)no1 [Compound 112, (R)-2,4-dimethyl-N-(5-(5-methyl-1,2,4-oxadiazol-3-yl)-2,3-dihydro-1H-inden-1-yl)oxazole-5-carboxamide]
0.3 µM | 1.3 µM | Cc1nc(-c2ccc3c(c2)CC[C@H]3NC(=O)c2oncc2C)no1 [Compound 113, (R)-4-methyl-N-(5-(5-methyl-1,2,4-oxadiazol-3-yl)-2,3-dihydro-1H-inden-1-yl)isoxazole-5-carboxamide]
0.5 µM | 2 µM | COCc1nc(-c2ccc3c(c2)CC[C@H]3NC(=O)c2oncc2C)no1 [Compound 114, (R)-N-(5-(5-(methoxymethyl)-1,2,4-oxadiazol-3-yl)-2,3-dihydro-1H-inden-1-yl)-4-methylisoxazole-5-carboxamide]
0.3 µM | 0.9 µM | Cc1cnoc1C(=O)N[C@@H]1CCc2cc(-c3noc(C4CC4)n3)ccc21 [Compound 115, (R)-N-(5-(5-cyclopropyl-1,2,4-oxadiazol-3-yl)-2,3-dihydro-1H-inden-1-yl)-4-methylisoxazole-5-carboxamide]
